Test results reported in ChEMBL document CHEMBL4033774, “Class I HDAC Inhibitors: Potential New Epigenetic Therapeutics for Alcohol Use Disorder (AUD)” (J Med Chem, 2018).
Values belong to the compound of their own block, whether it stands above or below them.

Experiments:
[1] = Drug uptake in baboon hippocampus after 20 mins by LC-MS/MS analysis; type: ADME, tissue-based; conditions: papio anubis, in vivo
[2] = Lipophilicity, log P of compound by LC-MS/MS analysis; type: physicochemical; conditions: octanol/water
[3] = tested on: Rattus norvegicus; assay: Decrease in alcohol intake in rat model of voluntary heavy drinking assessed as decrease in operant alcohol self-administration at 500 uM, icv administered twice relative to control; type: functional; design: scale not given: the % may be the effect or the level left
[4] = tested on: Rattus norvegicus; assay: Decrease in alcohol intake in rat model of voluntary heavy drinking assessed as decrease in motivation to consume alcohol at 500 uM, icv administered twice relative to control; type: functional; design: scale not given: the % may be the effect or the level left
[5] = tested on: Rattus norvegicus; assay: Decrease in alcohol intake in rat model of voluntary heavy drinking assessed as decrease in relapse phenomenon after period of abstinence at 500 uM, icv administered twice relative to control; type: functional; design: scale not given: the % may be the effect or the level left
[6] = Lipophilicity, log D of the compound at pH 7.4; type: physicochemical; conditions: buffer
[7] = tested on: Brain; assay: Drug uptake in iv dosed baboon brain after 90 mins by PET imaging method relative to control; type: ADME, organism-based; conditions: papio anubis, in vivo, 1.5 h
[8] = tested on: Brain; assay: Drug uptake in iv dosed rat brain after 90 mins by PET imaging method relative to control; type: ADME, organism-based; conditions: in vivo, 1.5 h
[9] = Half life in human at 6 mg/m2, po; type: ADME
[10] = Half life in human at 2 mg/m2 dosed twice a week; type: ADME, organism-based; conditions: in vivo
[11] = Lipophilicity, log P of the compound at pH 7.4; type: physicochemical; conditions: buffer
[12] = tested on: Rattus norvegicus; assay: Decrease in alcohol intake in rat assessed as ethanol intake at 2 mg/kg, ip administered daily during last 3 days of 10 day period of two-bottel choice paradigm (reference value: 7 g/kg); type: functional
[13] = target: Histone deacetylase 1 (Homo sapiens, UniProt Q13547); assay: Inhibition of human full length C-terminal His/FLAG-tagged HDAC1 expressed in baculovirus infected Sf9 insect cells preincubated for 2 hrs followed by Fluor-de-Lys substrate addition measured after 30 mins by fluorescence assay; type: cell-based
[14] = target: Histone deacetylase 2 (Homo sapiens, UniProt Q92769); assay: Inhibition of human full length C-terminal FLAG-tagged HDAC2 expressed in baculovirus infected Sf9 insect cells preincubated for 2 hrs followed by Fluor-de-Lys substrate addition measured after 30 mins by fluorescence assay; type: cell-based
[15] = target: Histone deacetylase 3/Nuclear receptor corepressor 2 (HDAC3/NCoR2) (Homo sapiens, UniProt O15379); assay: Inhibition of human full length C-terminal His-tagged HDAC3/N-terminal GST-tagged human NCOR2 co-expressed in baculovirus infected Sf9 insect cells preincubated for 2 hrs followed by Fluor-de-Lys substrate addition measured after 30 mins by fluorescence assay; type: cell-based
Chain of Histone deacetylase 3/Nuclear receptor corepressor 2 (HDAC3/NCoR2) (O15379 whole entry): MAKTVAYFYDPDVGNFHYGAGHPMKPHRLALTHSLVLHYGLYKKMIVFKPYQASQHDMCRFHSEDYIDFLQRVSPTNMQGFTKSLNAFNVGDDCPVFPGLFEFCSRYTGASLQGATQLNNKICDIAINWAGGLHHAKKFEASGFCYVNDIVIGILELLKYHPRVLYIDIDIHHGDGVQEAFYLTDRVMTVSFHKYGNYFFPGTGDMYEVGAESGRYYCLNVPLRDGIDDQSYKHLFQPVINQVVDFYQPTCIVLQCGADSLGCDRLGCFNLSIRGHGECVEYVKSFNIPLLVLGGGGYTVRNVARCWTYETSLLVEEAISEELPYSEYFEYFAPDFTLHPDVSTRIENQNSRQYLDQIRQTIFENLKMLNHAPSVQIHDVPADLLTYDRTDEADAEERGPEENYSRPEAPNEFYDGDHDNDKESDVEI
Chain of Histone deacetylase 3/Nuclear receptor corepressor 2 (HDAC3/NCoR2) (Q9Y618 whole entry, further chain): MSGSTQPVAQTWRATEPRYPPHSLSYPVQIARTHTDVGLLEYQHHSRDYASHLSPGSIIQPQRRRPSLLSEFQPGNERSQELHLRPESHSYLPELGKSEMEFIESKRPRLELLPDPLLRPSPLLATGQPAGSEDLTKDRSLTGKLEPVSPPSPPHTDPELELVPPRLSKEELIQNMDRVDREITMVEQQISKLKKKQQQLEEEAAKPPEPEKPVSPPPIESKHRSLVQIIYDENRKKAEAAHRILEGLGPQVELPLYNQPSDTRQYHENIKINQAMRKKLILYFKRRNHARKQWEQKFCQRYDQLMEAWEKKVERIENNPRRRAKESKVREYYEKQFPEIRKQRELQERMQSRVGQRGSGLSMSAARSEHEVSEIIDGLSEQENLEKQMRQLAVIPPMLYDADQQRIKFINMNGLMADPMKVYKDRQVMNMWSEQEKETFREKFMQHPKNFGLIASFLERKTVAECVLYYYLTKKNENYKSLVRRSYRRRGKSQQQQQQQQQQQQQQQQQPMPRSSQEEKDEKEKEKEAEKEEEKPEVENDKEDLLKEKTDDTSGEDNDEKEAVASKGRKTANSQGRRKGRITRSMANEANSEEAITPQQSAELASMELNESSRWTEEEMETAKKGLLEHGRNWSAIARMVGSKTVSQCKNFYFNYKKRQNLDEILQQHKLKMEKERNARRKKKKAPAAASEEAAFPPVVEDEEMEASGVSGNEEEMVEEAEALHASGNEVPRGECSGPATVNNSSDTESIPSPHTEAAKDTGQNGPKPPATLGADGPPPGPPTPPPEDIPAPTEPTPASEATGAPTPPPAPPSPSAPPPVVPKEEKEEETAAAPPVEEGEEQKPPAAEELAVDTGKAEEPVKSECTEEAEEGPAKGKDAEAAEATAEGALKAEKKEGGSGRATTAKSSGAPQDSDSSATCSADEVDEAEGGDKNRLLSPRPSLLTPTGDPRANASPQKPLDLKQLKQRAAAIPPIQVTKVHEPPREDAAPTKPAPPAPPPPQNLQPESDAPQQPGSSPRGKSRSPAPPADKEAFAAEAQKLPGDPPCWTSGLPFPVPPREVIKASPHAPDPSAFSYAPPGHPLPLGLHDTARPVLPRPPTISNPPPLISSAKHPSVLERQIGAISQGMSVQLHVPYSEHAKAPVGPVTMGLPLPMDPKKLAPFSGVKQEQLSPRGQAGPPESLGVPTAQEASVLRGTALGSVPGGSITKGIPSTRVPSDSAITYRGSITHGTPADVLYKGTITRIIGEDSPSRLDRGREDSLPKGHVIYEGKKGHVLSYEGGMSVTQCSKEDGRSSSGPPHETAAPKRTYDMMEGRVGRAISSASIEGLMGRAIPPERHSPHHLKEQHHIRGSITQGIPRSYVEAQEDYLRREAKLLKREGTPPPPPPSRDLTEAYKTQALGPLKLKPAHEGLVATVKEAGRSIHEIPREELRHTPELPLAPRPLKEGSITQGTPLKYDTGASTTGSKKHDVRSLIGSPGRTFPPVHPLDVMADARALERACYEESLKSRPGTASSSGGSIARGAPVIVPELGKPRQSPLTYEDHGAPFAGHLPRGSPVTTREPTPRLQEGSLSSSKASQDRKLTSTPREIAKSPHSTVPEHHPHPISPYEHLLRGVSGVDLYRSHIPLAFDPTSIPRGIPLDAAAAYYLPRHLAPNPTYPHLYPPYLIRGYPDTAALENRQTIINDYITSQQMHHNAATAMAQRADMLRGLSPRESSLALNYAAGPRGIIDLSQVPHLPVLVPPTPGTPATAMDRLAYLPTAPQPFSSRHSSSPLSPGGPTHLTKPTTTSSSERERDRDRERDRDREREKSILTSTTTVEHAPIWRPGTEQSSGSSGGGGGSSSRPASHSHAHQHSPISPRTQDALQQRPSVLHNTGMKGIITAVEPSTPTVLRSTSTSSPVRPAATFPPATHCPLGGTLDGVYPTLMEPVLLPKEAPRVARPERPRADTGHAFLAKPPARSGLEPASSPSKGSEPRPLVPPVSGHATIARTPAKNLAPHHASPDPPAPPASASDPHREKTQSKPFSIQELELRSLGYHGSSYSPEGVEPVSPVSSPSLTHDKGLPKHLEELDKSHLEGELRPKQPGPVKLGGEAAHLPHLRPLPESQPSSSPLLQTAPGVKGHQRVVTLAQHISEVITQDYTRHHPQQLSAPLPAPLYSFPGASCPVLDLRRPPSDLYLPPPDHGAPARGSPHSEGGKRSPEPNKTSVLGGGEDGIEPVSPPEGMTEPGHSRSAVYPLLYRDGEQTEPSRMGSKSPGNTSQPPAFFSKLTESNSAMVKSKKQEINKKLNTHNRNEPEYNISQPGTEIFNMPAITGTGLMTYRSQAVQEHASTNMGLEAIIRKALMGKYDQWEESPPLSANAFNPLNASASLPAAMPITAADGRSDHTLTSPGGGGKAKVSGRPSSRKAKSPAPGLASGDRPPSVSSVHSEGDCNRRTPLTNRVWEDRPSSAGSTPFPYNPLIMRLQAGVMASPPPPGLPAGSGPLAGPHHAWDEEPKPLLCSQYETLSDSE

[16] = target: Histone deacetylase 4 (Homo sapiens, UniProt P56524); assay: Inhibition of human recombinant N-terminal GST-tagged/C-terminal His-tagged HDAC4 expressed in baculovirus infected insect cells preincubated for 2 hrs followed by Fluor-de-Lys substrate addition measured after 30 mins by fluorescence assay; type: cell-based
Chain of Histone deacetylase 4 (P56524 whole entry): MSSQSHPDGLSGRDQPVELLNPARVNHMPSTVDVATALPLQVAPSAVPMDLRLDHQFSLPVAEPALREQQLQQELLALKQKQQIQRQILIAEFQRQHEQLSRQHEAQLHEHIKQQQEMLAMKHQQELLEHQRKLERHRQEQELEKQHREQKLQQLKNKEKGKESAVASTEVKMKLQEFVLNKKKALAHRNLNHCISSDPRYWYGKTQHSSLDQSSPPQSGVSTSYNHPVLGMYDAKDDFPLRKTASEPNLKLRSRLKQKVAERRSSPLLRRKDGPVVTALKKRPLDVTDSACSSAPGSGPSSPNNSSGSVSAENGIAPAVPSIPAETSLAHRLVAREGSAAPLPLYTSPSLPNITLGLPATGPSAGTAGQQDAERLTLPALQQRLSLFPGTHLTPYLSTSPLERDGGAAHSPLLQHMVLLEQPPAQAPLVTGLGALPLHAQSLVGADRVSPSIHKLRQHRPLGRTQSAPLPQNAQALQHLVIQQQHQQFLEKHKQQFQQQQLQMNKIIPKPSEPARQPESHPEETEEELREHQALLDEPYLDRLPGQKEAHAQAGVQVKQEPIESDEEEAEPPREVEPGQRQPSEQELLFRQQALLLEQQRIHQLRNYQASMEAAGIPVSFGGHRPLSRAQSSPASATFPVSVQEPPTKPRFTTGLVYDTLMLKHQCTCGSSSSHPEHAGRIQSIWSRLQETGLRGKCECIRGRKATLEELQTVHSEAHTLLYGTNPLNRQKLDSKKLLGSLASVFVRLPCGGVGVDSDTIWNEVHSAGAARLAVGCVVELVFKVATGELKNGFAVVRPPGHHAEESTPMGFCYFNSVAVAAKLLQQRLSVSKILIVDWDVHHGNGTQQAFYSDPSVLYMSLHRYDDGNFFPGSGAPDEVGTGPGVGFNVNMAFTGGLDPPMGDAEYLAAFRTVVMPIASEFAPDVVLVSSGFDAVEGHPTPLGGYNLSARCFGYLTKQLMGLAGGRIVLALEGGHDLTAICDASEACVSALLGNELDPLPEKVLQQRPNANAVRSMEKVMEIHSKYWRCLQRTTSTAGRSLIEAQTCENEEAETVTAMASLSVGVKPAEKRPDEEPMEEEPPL

[17] = target: Histone deacetylase 5 (Homo sapiens, UniProt Q9UQL6); assay: Inhibition of human recombinant C-terminal His-tagged HDAC5 expressed in baculovirus infected insect cells preincubated for 2 hrs followed by Fluor-de-Lys substrate addition measured after 30 mins by fluorescence assay; type: cell-based
Chain of Histone deacetylase 5 (Q9UQL6 whole entry): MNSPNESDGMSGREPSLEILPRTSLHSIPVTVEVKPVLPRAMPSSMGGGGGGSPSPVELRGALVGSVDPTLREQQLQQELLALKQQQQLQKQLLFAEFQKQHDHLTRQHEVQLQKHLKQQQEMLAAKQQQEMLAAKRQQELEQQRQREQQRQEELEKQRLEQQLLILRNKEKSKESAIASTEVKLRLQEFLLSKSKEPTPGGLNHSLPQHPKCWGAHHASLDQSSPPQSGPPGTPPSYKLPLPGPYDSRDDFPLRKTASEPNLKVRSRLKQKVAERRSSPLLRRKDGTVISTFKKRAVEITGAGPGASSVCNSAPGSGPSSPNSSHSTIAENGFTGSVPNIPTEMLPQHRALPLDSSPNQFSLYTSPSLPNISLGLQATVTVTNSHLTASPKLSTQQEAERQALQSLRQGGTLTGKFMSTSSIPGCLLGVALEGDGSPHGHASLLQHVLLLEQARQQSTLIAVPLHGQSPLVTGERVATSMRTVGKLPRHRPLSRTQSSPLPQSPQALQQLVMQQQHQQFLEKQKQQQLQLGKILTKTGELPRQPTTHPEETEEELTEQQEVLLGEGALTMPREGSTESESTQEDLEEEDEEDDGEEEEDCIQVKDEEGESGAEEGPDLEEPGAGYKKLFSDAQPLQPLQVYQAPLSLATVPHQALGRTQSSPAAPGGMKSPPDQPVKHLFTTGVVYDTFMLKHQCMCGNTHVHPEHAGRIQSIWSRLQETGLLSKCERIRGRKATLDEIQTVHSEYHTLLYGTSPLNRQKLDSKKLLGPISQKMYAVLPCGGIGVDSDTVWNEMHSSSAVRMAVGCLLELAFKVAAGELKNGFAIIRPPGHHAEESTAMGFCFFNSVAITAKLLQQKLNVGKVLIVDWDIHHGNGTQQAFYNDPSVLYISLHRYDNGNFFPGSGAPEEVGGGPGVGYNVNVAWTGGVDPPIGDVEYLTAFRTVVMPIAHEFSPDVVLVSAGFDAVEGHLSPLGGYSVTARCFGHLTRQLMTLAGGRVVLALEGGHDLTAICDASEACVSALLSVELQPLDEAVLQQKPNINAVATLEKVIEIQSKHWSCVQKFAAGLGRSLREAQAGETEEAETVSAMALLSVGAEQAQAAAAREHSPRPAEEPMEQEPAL

[18] = target: T1, Histone deacetylase 7 (Homo sapiens, UniProt Q8WUI4); assay: Inhibition of human recombinant N-terminal GST-tagged HDAC7 expressed in baculovirus infected insect cells preincubated for 2 hrs followed by Fluor-de-Lys substrate addition measured after 30 mins by fluorescence assay; type: cell-based
T1 sequence (Q8WUI4 whole entry): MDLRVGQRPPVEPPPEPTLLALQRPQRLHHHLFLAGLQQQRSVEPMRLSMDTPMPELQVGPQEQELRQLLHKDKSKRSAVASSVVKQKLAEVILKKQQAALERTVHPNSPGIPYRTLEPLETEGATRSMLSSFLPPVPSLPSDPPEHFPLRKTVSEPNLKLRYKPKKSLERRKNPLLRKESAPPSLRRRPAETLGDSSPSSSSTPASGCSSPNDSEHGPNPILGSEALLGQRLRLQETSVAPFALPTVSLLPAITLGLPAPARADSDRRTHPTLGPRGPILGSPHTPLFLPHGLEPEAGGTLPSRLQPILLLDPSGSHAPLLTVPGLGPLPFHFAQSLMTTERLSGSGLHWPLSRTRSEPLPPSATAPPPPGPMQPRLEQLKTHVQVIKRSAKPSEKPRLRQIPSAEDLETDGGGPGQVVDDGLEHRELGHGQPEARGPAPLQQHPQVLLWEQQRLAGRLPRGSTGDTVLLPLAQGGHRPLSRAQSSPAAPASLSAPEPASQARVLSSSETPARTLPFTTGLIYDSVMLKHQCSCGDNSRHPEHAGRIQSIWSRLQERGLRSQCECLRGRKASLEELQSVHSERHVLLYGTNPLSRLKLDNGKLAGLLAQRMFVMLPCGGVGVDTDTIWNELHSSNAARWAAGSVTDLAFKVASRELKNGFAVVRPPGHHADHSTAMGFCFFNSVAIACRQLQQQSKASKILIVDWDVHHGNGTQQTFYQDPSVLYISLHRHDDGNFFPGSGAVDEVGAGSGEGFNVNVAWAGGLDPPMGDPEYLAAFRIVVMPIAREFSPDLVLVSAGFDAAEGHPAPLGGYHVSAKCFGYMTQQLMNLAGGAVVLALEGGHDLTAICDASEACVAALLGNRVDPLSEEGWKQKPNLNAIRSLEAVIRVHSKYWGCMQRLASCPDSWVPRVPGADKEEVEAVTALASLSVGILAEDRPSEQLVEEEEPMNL

[19] = target: T2, Histone deacetylase 8 (Homo sapiens, UniProt Q9BY41); assay: Inhibition of HDAC8 (unknown origin) preincubated for 2 hrs followed by Fluor-de-Lys substrate addition measured after 30 mins by fluorescence assay
T2 sequence (Q9BY41 whole entry): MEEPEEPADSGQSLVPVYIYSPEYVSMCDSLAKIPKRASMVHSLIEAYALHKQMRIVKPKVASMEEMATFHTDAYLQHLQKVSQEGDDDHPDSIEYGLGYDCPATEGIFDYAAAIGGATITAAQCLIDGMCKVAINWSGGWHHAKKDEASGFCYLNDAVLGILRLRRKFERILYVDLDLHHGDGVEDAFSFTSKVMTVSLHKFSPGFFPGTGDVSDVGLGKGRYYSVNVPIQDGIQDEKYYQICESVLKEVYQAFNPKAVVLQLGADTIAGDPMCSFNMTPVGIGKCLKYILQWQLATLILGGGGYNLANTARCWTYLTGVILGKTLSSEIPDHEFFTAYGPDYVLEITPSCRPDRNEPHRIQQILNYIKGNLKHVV

Drug uptake [1]: 30% | logP [2]: 2.61
Structure (SMILES): COc1ccc(Cn2ccc3ccc(C(=O)NO)cc32)cc1

logD [6]: 1.8 | Drug uptake [7]: < 0.001% | Drug uptake [8]: < 0.1% | half-life [9]: 33.9 h | half-life [10]: 52 to 150 h | logD [11]: 2.5
Structure (SMILES): Nc1ccccc1NC(=O)c1ccc(CNC(=O)OCc2cccnc2)cc1 [ENTINOSTAT]
Activity [3]: 75% | Activity [4]: 25% | Activity [5]: 50%

Structure (SMILES): CC(/C=C/C(=O)NO)=C\[C@@H](C)C(=O)c1ccc(N(C)C)cc1 [TRICHOSTATIN]
Activity [12]: <1 g/kg

IC50 [13]: 199 nM | IC50 [14]: 1590 nM | IC50 [15]: 69 nM | IC50 [16]: > 180000 nM | IC50 [17]: > 180000 nM | IC50 [18]: > 180000 nM | IC50 [19]: 5000 nM
Structure (SMILES): Nc1ccccc1NC(=O)CCCCCC(=O)Nc1ccccc1
